Columns and labels:
[1] = in vitro
Protocol: For the antiviral assay, 40 μL of 1× test concentration of 3-fold serially diluted compound in culture medium with 10% FBS was added to each well of a 384-well plate (10 concentrations) in quadruplicate. MT-4 cells were next mixed with HIV-IIIb at an m.o.i of 0.003 for 1 hour, after which time 35 μL of virus/cell mixture (2000 cells) was immediately added to each well containing 40 μL of diluted compound. The plates were then incubated at 37° C. for 5 days. After 5 days of incubation, 25 μl of 2× concentrated CellTiter-Glo™ Reagent (catalog #G7571, Promega Biosciences, Inc., Madison, Wis.) was added to each well containing MT-4 cells. Cell lysis was carried out by incubating at room temperature for 10 min and then chemiluminescence was read.
Test B: Cytotoxicity Assay
Compound cytotoxicity and the corresponding CC50 values was determined using the same protocol as described in the antiviral assay (Test A) except that uninfected cells were used.

[2] = system: HIV-IIIb; test: Test A: Antiviral assay in MT4 cells; assay type: cell-based, HIV-1; details: MT-4 cells infected with HIV-IIIb, 5 days, CellTiter-Glo; for inhibition at 2 µM: Human immunodeficiency virus 1, IIIB, MT4, 120 h, read-out: % inhibition at 2 μM, percent inhibition of virus-induced cell killing, from dose response curve at 2 uM drug
[3] = human, uninfected MT-4 cells, CC50 (nM), same protocol as Test A, CellTiter-Glo
[4] = human, CC50 (nM), uninfected MT-4 cells, same protocol as Test A, CellTiter-Glo

| Compound | CC50 at 5 days [1, 3] [nM] | inhibition at 2 µM [2] [%] | CC50 at 5 days [1, 4] [nM] | % inhibition at 2 μM ([2]; percent inhibition of virus-induced cell killing, from dose response curve at 2 uM drug) [%] |
| --- | --- | --- | --- | --- |
| NC(=O)c1cc(-c2cccnc2[C@H](Cc2cc(F)cc(F)c2)NC(=O)Cn2nc(C(F)(F)F)c3c2C2CC2C3O)ccc1F (stereo partly drawn) [Example 457, 5-(2-((1S)-2-(3,5-difluorophenyl)-1-(2-(4-hydroxy-3-(trifluoromethyl)-4,4-a,5,5a-tetrahydro-1H-cyclopropa[4,5]cyclopenta[1,2-c]pyrazol-1-yl)acetamido)ethyl)pyridin-3-yl)-2-fluorobenzamide] | > 53200 | 64 | – | – |
| CCc1cccc2c(C(C)=O)cn(CC(=O)N[C@@H](Cc3cc(F)cc(F)c3)c3ncccc3-c3ccc(F)c(C(N)=O)c3)c12 [Example 509, (S)-5-(2-(1-(2-(3-acetyl-7-ethyl-1H-indol-1-yl)acetamido)-2-(3,5-difluorophenyl)ethyl)pyridin-3-yl)-2-fluorobenzamide] | – | 48 | 24600 | – |
| NC(=O)c1cc(-c2cccnc2[C@H](Cc2cc(F)cc(F)c2)NC(=O)Cn2nc(C(F)(F)F)c3c2CCC3O)ccc1F (stereo partly drawn) [Example 525, 5-(2-((1S)-2-(3,5-difluorophenyl)-1-(2-(4-hydroxy-3-(trifluoromethyl)-5,6-dihydrocyclopenta[c]pyrazol-1(4H)-yl)acetamido)ethyl)pyridin-3-yl)-2-fluorobenzamide] | > 53200 | 83 | – | – |
| COc1ccc2[nH]cc(CC(=O)NC(Cc3cc(F)cc(F)c3)c3nccnc3-c3ccc(Cl)cc3)c2n1 (centres unmarked) [Example 454, N-(1-(3-(4-chlorophenyl)pyrazin-2-yl)-2-(3,5-difluorophenyl)ethyl)-2-(5-methoxy-1H-pyrrolo[3,2-b]pyridin-3-yl)acetamide] | 11100 | 1 | – | – |
| CC(C)Oc1ccc(-c2cccnc2[C@H](Cc2cc(F)cc(F)c2)NC(=O)Cn2nc(C(F)(F)F)c3c2CCCC3)cc1 [Example 100, (S)—N-(2-(3,5-difluorophenyl)-1-(3-(4-isopropoxyphenyl)pyridin-2-yl)ethyl)-2-(3-(trifluoromethyl)-4,5,6,7-tetrahydro-1H-indazol-1-yl)acetamide] | 7830 | 56 | – | – |
| N#Cc1cn(CC(=O)N[C@@H](Cc2cc(F)cc(F)c2)c2ncccc2-c2ccc(F)c(C(N)=O)c2)nc1C(F)(F)F [Example 363, (S)-5-(2-(1-(2-(4-cyano-3-(trifluoromethyl)-1H-pyrazol-1-yl)acetamido)-2-(3,5-difluorophenyl)ethyl)pyridin-3-yl)-2-fluorobenzamide] | 21900 | 2 | – | – |
| O=C(Cc1c[nH]c2ccc(F)cc12)N[C@@H](Cc1cc(F)cc(F)c1)c1ncccc1-c1cccc(OCc2ccccc2)c1 [Example 92, (S)—N-(1-(3-(3-(benzyloxy)phenyl)pyridin-2-yl)-2-(3,5-difluorophenyl)ethyl)-2-(5-fluoro-1H-indol-3-yl)acetamide] | 10300 | 0 | – | – |
| CC(=O)c1c(C)n(CC(=O)N[C@@H](Cc2cc(F)cc(F)c2)c2ncccc2-c2cccc(C(N)=O)c2)c2ccccc12 [Example 495, (S)-3-(2-(1-(2-(3-acetyl-2-methyl-1H-indol-1-yl)acetamido)-2-(3,5-difluorophenyl)ethyl)pyridin-3-yl)benzamide] | – | 85 | 15500 | – |
| Cc1c(C#N)c(C(F)(F)F)nn1CC(=O)N[C@@H](Cc1cc(F)cc(F)c1)c1ncccc1-c1ccc(F)c(C(N)=O)c1 [Example 376, (S)-5-(2-(1-(2-(4-cyano-5-methyl-3-(trifluoromethyl)-1H-pyrazol-1-yl)acetamido)-2-(3,5-difluorophenyl)ethyl)pyridin-3-yl)-2-fluorobenzamide] | 29100 | 2 | – | – |
| COc1ccc(-c2cccnc2[C@H](Cc2cc(F)cc(F)c2)NC(=O)Cn2nc(C(F)(F)F)c3c2CCCC3)cc1 [Example 30, (S)—N-(2-(3,5-difluorophenyl)-1-(3-(4-methoxyphenyl)pyridin-2-yl)ethyl)-2-(3-(trifluoromethyl)-4,5,6,7-tetrahydro-1H-indazol-1-yl)acetamide] | 11900 | 76 | – | – |
| Cc1cc2ncn(C(CC(F)(F)F)C(=O)N[C@@H](Cc3cc(F)cc(F)c3)c3ncccc3-c3ccc(F)c(C(N)=O)c3)c2cc1C (single isomer, unassigned) [Example 540E] | > 53200 | – | – | −4 |
| O=C(Cc1c[nH]c2ccc(F)cc12)N[C@@H](Cc1cc(F)cc(F)c1)c1ncccc1-c1ccc(Cl)c(F)c1 [Example 434] | 12300 | 20 | – | – |
| CC(C)(C)C#Cc1cn(CC(=O)N[C@@H](Cc2cc(F)cc(F)c2)c2ncccc2-c2ccc(F)c(C(N)=O)c2)nc1C(F)(F)F [Example 357, (S)-5-(2-(2-(3,5-difluorophenyl)-1-(2-(4-(3,3-dimethylbut-1-ynyl)-3-(trifluoromethyl)-1H-pyrazol-1-yl)acetamido)ethyl)pyridin-3-yl)-2-fluorobenzamide] | 8820 | 0 | – | – |
| Cc1c(C(F)F)nn(CC(=O)N[C@@H](Cc2cc(F)cc(F)c2)c2ncccc2-c2ccc(F)c(C(N)=O)c2)c1C(F)F [Example 493, (S)-5-(2-(1-(2-(3,5-bis(difluoromethyl)-4-methyl-1H-pyrazol-1-yl)acetamido)-2-(3,5-difluorophenyl)ethyl)pyridin-3-yl)-2-fluorobenzamide] | 33900 | 48 | – | – |
| NC(=O)c1cc(-c2cccnc2[C@H](Cc2cc(F)cc(F)c2)NC(=O)Cn2nc3c(c2C(F)(F)OCc2ccccn2)CCCC3)ccc1F [Example 143, (S)-5-(2-(1-(2-(3-(difluoro(pyridin-2-ylmethoxy)methyl)-4,5,6,7-tetrahydro-2H-indazol-2-yl)acetamido)-2-(3,5-difluorophenyl)ethyl)pyridin-3-yl)-2-fluorobenzamide] | 19900 | 10 | – | – |
| Cc1cc2ncn(CC(=O)N[C@@H](Cc3cc(F)cc(F)c3)c3ncccc3-c3cccc(S(=O)(=O)NC4CC4)c3)c2cc1C [Example 353B, (S)—N-(1-(3-(3-(N-cyclopropylsulfamoyl)phenyl)pyridin-2-yl)-2-(3,5-difluorophenyl)ethyl)-2-(5,6-dimethyl-1H-benzo[d]imidazol-1-yl)acetamide] | 12700 | 110 | – | – |
| O=C(Cn1nc(C(F)(F)F)c2c1CCCC2)NC(Cc1cc(F)cc(F)c1)c1nccnc1-c1ccc(Cl)cc1 (centres unmarked) [Example 474, N-(1-(3-(4-chlorophenyl)pyrazin-2-yl)-2-(3,5-difluorophenyl)ethyl)-2-(3-(trifluoromethyl)-4,5,6,7-tetrahydro-1H-indazol-1-yl)acetamide] | 9980 | 17 | – | – |
| CC(C)c1nccn1CC(=O)N[C@@H](Cc1cc(F)cc(F)c1)c1ncccc1-c1ccc(F)c(C(N)=O)c1 [Example 537, (S)-5-(2-(2-(3,5-difluorophenyl)-1-(2-(2-isopropyl-1H-imidazol-1-yl)acetamido)ethyl)pyridin-3-yl)-2-fluorobenzamide] | > 53200 | 2 | – | – |
| O=C(Cc1c[nH]c2ccc(F)cc12)N[C@@H](Cc1cc(F)cc(F)c1)c1ncccc1-c1cccnc1 [Example 439, (S)—N-(1-(3,3′-bipyridin-2-yl)-2-(3,5-difluorophenyl)ethyl)-2-(5-fluoro-1H-indol-3-yl)acetamide] | 21700 | -2 | – | – |

Source: US9540343B2 (Gilead Sciences, Inc., priority 2011, dated 2017)
